Data from US8501811B2, “TASPASE1 inhibitors and their uses” (Washington University, priority 2010, dated 2013).
“Also recorded” adds a separate entry of the source. Each block holds one molecule with its values, some of them ahead of it. Residues, ends and D or L forms follow the SMILES beside them. *: point of attachment. DNP = 2,4-dinitrophenyl quenching group; X1 = CS(=O)(=O)/C=C/[C@H](CC(=O)O)N*; MCA = fluorogenic coumarin group

Key:
Taspase1 = target: T1, Taspase1 (Homo sapiens, UniProt Q9H6P5); test: FRET-based Taspase1 proteolytic reporter (FRPR) assay; format: biochemical; details: for EC50: Maybridge library screen, dose-response
T1 sequence (Q9H6P5 1-233 limits assumed): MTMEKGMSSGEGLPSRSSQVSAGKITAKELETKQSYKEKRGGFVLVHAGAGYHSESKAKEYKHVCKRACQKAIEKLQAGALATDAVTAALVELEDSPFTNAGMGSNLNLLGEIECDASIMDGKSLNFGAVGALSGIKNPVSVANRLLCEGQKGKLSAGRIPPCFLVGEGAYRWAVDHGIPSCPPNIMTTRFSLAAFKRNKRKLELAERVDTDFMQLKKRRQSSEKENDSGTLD

[1] = target: T2, recombinant Taspase1 (rTaspase1) (Homo sapiens, UniProt Q9H6P5); test: Taspase1-MLL in vitro cleavage assay (IVTT 35S methionine labeled p75MLL reporter, SDS-PAGE, autoradiography); format: biochemical; details: for Inhibition of Taspase1-mediated p75MLL cleavage (in words): indicated concentrations, 30 minutes pretreatment; for Effect of increasing pretreatment time on Taspase1 inhibition: 5 μM, pre-incubation for increasing periods of time; for Inhibition of Taspase1-mediated p75MLL cleavage at 1 mM: 1 mM (up to 1 mM); for IC50: rTaspase1 pretreated 30 minutes at room temperature, then p75MLL reporter 30 minutes at 30° C., read-out: IC50 of Taspase1 inhibition (p75MLL cleavage)
T2 sequence (Q9H6P5 1-233 limits assumed): T1 sequence (Q9H6P5 1-233 limits assumed)

[2] = target: Recombinant Caspase8 (rCaspase8) (Homo sapiens, UniProt Q14790); test: Caspase8-BID in vitro cleavage assay (IVTT 35S methionine labeled p22Bid reporter); format: biochemical; details: 1 mM, tertiary screen
Sequence of Recombinant Caspase8 (rCaspase8) (Q14790 217-374 limits assumed, species assumed): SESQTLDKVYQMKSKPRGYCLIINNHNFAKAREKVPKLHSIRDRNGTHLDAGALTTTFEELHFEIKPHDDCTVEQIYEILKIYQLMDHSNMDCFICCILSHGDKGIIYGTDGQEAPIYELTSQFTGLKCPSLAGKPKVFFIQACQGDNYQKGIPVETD

[3] = test system: SV40-transformed mouse embryonic fibroblasts (MEFs); test: MTT assay of SV40-transformed MEFs, wild-type versus Taspase1-/-; format: cell-based; details: 2 days, relative cell number
autotoxin = autotoxin (Homo sapiens, UniProt Q13822); details: cited from earlier work
NCI60 cell lines = details: NCI DTP database; cited from earlier work

EC50 (Taspase1): 4 µM
Molecule: Cc1ccc(S(=O)(=O)NC(=O)Nc2nc(-c3ccc(C)c(Cl)c3)c(C)s2)cc1 [HTS 06900]

Inhibition of Taspase1-mediated p75MLL cleavage (in words) [1]: no activity
Molecule: CC(C)C[C@H](NC(=O)[C@H](Cc1ccccc1)NC(=O)c1cnccn1)B(O)O [bortezomib]

EC50 (Taspase1): 2.2 µM
Molecule: Cc1ccc(-c2nc(NS(=O)(=O)c3cccc4nonc34)sc2C)cc1Cl [HTS 01888]

EC50 (Taspase1): 5.9 µM
Molecule: CC(C)(C)c1cc(C(=O)NNC(=S)Nc2ccccc2)n(Cc2ccc(Cl)cc2Cl)n1 [SPB 08132]

Inhibition of Taspase1-mediated p75MLL cleavage (in words) [1]: minimal activity
Molecule: CC[C@H](C)[C@H](NC(=O)[C@H](CCCCN)NC(C)=O)C(=O)N[C@@H](CO)C(=O)N[C@@H](CCC(N)=O)C(=O)N[C@@H](CC(C)C)C(=O)N[C@H](C=O)CC(=O)O [ISQLD-aldehyde] (Ac-KISQLD-aldehyde)

More lines, now with the values behind:

Molecule: MCA-KISQLDGVDD-DNP ({MCA}-KISQLDGVDD-{DNP}) [FRPR]
Km (Taspase1; rTaspase1 at room temperature, read-out: apparent KM of the reporter substrate): 9.06 ± 2.8 µM

Molecule: O=C(NNC(=S)Nc1cccc(C(F)(F)F)c1)c1sc2ccccc2c1Cl [BTB 00807]
EC50 (Taspase1): 9.9 µM

Molecule: O=C(CO/N=C/c1ccc(Cl)cc1Cl)NNCCC(=S)Nc1cc(Cl)ccc1Cl [CD 06082]
EC50 (Taspase1): 3.3 µM

Molecule: Cc1ccc(NC(=S)NNC(=O)Cn2nnc(-c3cccc(Cl)c3Cl)n2)cc1Cl [RJF 02020]
EC50 (Taspase1): 3.9 µM

Molecule: O=[As](O)(O)c1ccc(Cc2ccc([As](=O)(O)O)cc2)cc1 [NSC48300, [4-[(4-arsonophenyl)methyl]phenyl]arsonic acid]
Effect of increasing pretreatment time on Taspase1 inhibition [1]: did not enhance the inhibition
Effect of increasing pretreatment time on Taspase1 inhibition ([1]; listed as TASPIN-NSC48300): did not exhibit enhanced inhibition
Inhibition of Taspase1-mediated p75MLL cleavage at 10 μM ([1]; 10 μM): completely inhibited
Inhibition of Taspase1-mediated p75MLL cleavage at 1 mM [1]: inhibited Taspase1
IC50 [1]: ~7.5 µM
Inhibition of Caspase8-mediated p22Bid cleavage [2]: only targets Taspase1; also recorded: not Caspase8
Ki (Taspase1; 100 nM rTaspase1, varying concentrations of FRPR, read-out: KI of Taspase1 inhibition): 4.22 ± 0.46 µM
Mode of Taspase1 inhibition (Taspase1; varying concentrations of FRPR and inhibitor): non-competitive inhibition
Susceptibility of wild-type versus Taspase1-/- SV40-transformed MEFs [3]: more susceptible
Inhibition of autotoxin (autotoxin): inhibit autotoxin
Growth inhibition in the NCI60 screen (NCI60 cell lines): distinct pattern of growth inhibition

Molecule: CC[C@H](C)[C@H](NC(C)=O)C(=O)N[C@@H](CO)C(=O)N[C@@H](CCC(N)=O)C(=O)N[C@@H](CC(C)C)C(=O)N[C@H](/C=C/S(C)(=O)=O)CC(=O)O [ISQLD-vinyl sulfone] (Ac-ISQL-X1; N-terminus and C-terminus assumed)
IC50 [1]: 29.4 µM

Molecule: S=C(NNC(=S)NC1CC2C=CC1C2)Nc1ccc(Br)c(Cl)c1 (centres unmarked) [CD 02506]
EC50 (Taspase1): 1.5 µM

Molecule: arsenic acid
Inhibition of Taspase1-mediated p75MLL cleavage at 1 mM [1]: no inhibition
